Tests used:
Assay in all cases: relative viability (nuclei count vs DMSO), 5 days (fraction); higher = more cells survive
ABC-1 = test system: ABC-1
Summary of the method: (§1)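 Lung cancer cell lines were pin-tool dosed in 1536-well plates on the day after seeding, with either a lone drug or a fixed anchor-drug dose plus five library-drug doses (not always all listed) in √10 steps. Nuclei were counted on 4× images after 5 days. Relative viability is the ratio of treated-well to vehicle-well nuclei counts, with each value a median of duplicate plates.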

COR-L23 = test system: COR-L23
Summary of the method: as §1

H3255 = test system: H3255
Summary of the method: as §1

HCC-15 = test system: HCC-15
Summary of the method: as §1

HCC-366 = test system: HCC-366
Summary of the method: as §1

HCC-827 = test system: HCC-827
Summary of the method: as §1

LC-2-ad = test system: LC-2-ad
Summary of the method: as §1

LCLC-103H = test system: LCLC-103H
Summary of the method: as §1

LXF-289 = test system: LXF-289
Summary of the method: as §1

NCI-H1437 = test system: NCI-H1437
Summary of the method: as §1

NCI-H1666 = test system: NCI-H1666
Summary of the method: as §1

NCI-H1975 = test system: NCI-H1975
Summary of the method: as §1

NCI-H2009 = test system: NCI-H2009
Summary of the method: as §1

NCI-H2085 = test system: NCI-H2085
Summary of the method: as §1

NCI-H2087 = test system: NCI-H2087
Summary of the method: as §1

NCI-H2228 = test system: NCI-H2228
Summary of the method: as §1

NCI-H23 = test system: NCI-H23
Summary of the method: as §1

NCI-H661 = test system: NCI-H661
Summary of the method: as §1

PC-14 = test system: PC-14
Summary of the method: as §1

PC-3 [JPC-3] = test system: PC-3 [JPC-3]
Summary of the method: as §1

UMC-11 = test system: UMC-11
Summary of the method: as §1

## Cc1cn(-c2cc(NC(=O)c3ccc(C)c(Nc4nccc(-c5cccnc5)n4)c3)cc(C(F)(F)F)c2)cn1 [Nilotinib] + CC(C)C[C@H](NC(=O)[C@H](Cc1ccccc1)NC(=O)c1cnccn1)B(O)O [Bortezomib] (partner 0.002 µM)
ABC-1; first compound 0.001 µM
  relative viability: 0.291
ABC-1; first compound 0.003162 µM
  relative viability: 0.275
ABC-1; first compound 0.01 µM
  relative viability: 0.23
ABC-1; first compound 0.03162 µM
  relative viability: 0.28
COR-L23; first compound 0.001 µM
  relative viability: 0.726
COR-L23; first compound 0.003162 µM
  relative viability: 1.24
COR-L23; first compound 0.01 µM
  relative viability: 1.22
COR-L23; first compound 0.03162 µM
  relative viability: 0.858
COR-L23; first compound 0.1 µM
  relative viability: 0.907
H3255; first compound 0.001 µM
  relative viability: 0.917
H3255; first compound 0.003162 µM
  relative viability: 0.656
H3255; first compound 0.01 µM
  relative viability: 0.986
H3255; first compound 0.03162 µM
  relative viability: 0.787
H3255; first compound 0.1 µM
  relative viability: 0.558
HCC-15; first compound 0.001 µM
  relative viability: 0.92
HCC-15; first compound 0.003162 µM
  relative viability: 1.41
HCC-15; first compound 0.01 µM
  relative viability: 1.33
HCC-15; first compound 0.03162 µM
  relative viability: 0.855
HCC-15; first compound 0.1 µM
  relative viability: 0.629
HCC-366; first compound 0.001 µM
  relative viability: 0.88
HCC-366; first compound 0.003162 µM
  relative viability: 1.74
HCC-366; first compound 0.01 µM
  relative viability: 1.35
HCC-366; first compound 0.03162 µM
  relative viability: 0.692
HCC-366; first compound 0.1 µM
  relative viability: 0.844
HCC-827; first compound 0.003162 µM
  relative viability: 1.19
HCC-827; first compound 0.01 µM
  relative viability: 1.08
HCC-827; first compound 0.03162 µM
  relative viability: 1.07
HCC-827; first compound 0.1 µM
  relative viability: 1.06
LC-2-ad; first compound 0.001 µM
  relative viability: 0.914
LC-2-ad; first compound 0.003162 µM
  relative viability: 1.17
LC-2-ad; first compound 0.01 µM
  relative viability: 0.983
LC-2-ad; first compound 0.03162 µM
  relative viability: 0.992
LC-2-ad; first compound 0.1 µM
  relative viability: 0.527
LCLC-103H; first compound 0.001 µM
  relative viability: 1.08
LCLC-103H; first compound 0.003162 µM
  relative viability: 1.29
LCLC-103H; first compound 0.03162 µM
  relative viability: 1.15
LCLC-103H; first compound 0.1 µM
  relative viability: 0.909
LXF-289; first compound 0.001 µM
  relative viability: 0.977
LXF-289; first compound 0.003162 µM
  relative viability: 1.22
LXF-289; first compound 0.01 µM
  relative viability: 1.11
LXF-289; first compound 0.03162 µM
  relative viability: 0.977
LXF-289; first compound 0.1 µM
  relative viability: 0.692
NCI-H1437; first compound 0.001 µM
  relative viability: 0.485
NCI-H1437; first compound 0.003162 µM
  relative viability: 0.505
NCI-H1437; first compound 0.01 µM
  relative viability: 0.651
NCI-H1437; first compound 0.03162 µM
  relative viability: 0.367
NCI-H1437; first compound 0.1 µM
  relative viability: 0.161
NCI-H1666; first compound 0.001 µM
  relative viability: 0.774
NCI-H1666; first compound 0.01 µM
  relative viability: 0.649
NCI-H1666; first compound 0.03162 µM
  relative viability: 0.985
NCI-H1666; first compound 0.1 µM
  relative viability: 0.829
NCI-H1975; first compound 0.001 µM
  relative viability: 0.32
NCI-H1975; first compound 0.003162 µM
  relative viability: 0.315
NCI-H1975; first compound 0.01 µM
  relative viability: 0.268
NCI-H1975; first compound 0.03162 µM
  relative viability: 0.279
NCI-H1975; first compound 0.1 µM
  relative viability: 0.171
NCI-H2009; first compound 0.001 µM
  relative viability: 0.937
NCI-H2009; first compound 0.003162 µM
  relative viability: 1.14
NCI-H2009; first compound 0.01 µM
  relative viability: 1.16
NCI-H2009; first compound 0.03162 µM
  relative viability: 1.06
NCI-H2009; first compound 0.1 µM
  relative viability: 0.218
NCI-H2085; first compound 0.001 µM
  relative viability: 1.11
NCI-H2085; first compound 0.003162 µM
  relative viability: 1.11
NCI-H2085; first compound 0.01 µM
  relative viability: 1.27
NCI-H2085; first compound 0.03162 µM
  relative viability: 0.816
NCI-H2085; first compound 0.1 µM
  relative viability: 0.725
NCI-H2087; first compound 0.001 µM
  relative viability: 0.693
NCI-H2087; first compound 0.003162 µM
  relative viability: 1.03
NCI-H2087; first compound 0.01 µM
  relative viability: 0.762
NCI-H2087; first compound 0.03162 µM
  relative viability: 0.68
NCI-H2087; first compound 0.1 µM
  relative viability: 0.296
NCI-H2228; first compound 0.001 µM
  relative viability: 1.09
NCI-H2228; first compound 0.003162 µM
  relative viability: 1.23
NCI-H2228; first compound 0.01 µM
  relative viability: 1.21
NCI-H2228; first compound 0.03162 µM
  relative viability: 0.641
NCI-H2228; first compound 0.1 µM
  relative viability: 0.422
NCI-H23; first compound 0.001 µM
  relative viability: 1.07
NCI-H23; first compound 0.003162 µM
  relative viability: 1.37
NCI-H23; first compound 0.01 µM
  relative viability: 1.4
NCI-H23; first compound 0.03162 µM
  relative viability: 0.73
NCI-H23; first compound 0.1 µM
  relative viability: 0.775
NCI-H661; first compound 0.001 µM
  relative viability: 0.752
NCI-H661; first compound 0.003162 µM
  relative viability: 0.831
NCI-H661; first compound 0.01 µM
  relative viability: 1.02
NCI-H661; first compound 0.03162 µM
  relative viability: 0.642
NCI-H661; first compound 0.1 µM
  relative viability: 0.815
PC-14; first compound 0.003162 µM
  relative viability: 1.05
PC-14; first compound 0.01 µM
  relative viability: 1.02
PC-14; first compound 0.03162 µM
  relative viability: 0.797
PC-14; first compound 0.1 µM
  relative viability: 0.867
PC-3 [JPC-3]; first compound 0.001 µM
  relative viability: 0.848
PC-3 [JPC-3]; first compound 0.003162 µM
  relative viability: 0.88
PC-3 [JPC-3]; first compound 0.01 µM
  relative viability: 0.975
PC-3 [JPC-3]; first compound 0.03162 µM
  relative viability: 0.707
PC-3 [JPC-3]; first compound 0.1 µM
  relative viability: 0.46
UMC-11; first compound 0.001 µM
  relative viability: 0.65
UMC-11; first compound 0.003162 µM
  relative viability: 0.658
UMC-11; first compound 0.01 µM
  relative viability: 0.806
UMC-11; first compound 0.1 µM
  relative viability: 0.333
